Assay results published in a melting point compilation (Tetko et al.; mined from patent text by program, amines drawn as free bases though some values may be those of a salt).

Row | SMILES | melting point [°C]
1 | CCCSC1(C(F)(F)F)CN(C2CC2)C(=O)Nc2ccc(Cl)cc21 (stereo not drawn) | 150 to 151
2 | CCOC(=O)C(F)(F)C(O)C(CC(C)C)NC(=O)OC(C)(C)C (stereo not drawn) | 72 to 76
3 | CN(C)C1(c2cccs2)CC=C(c2[nH]c3ccccc3c2CCc2ccncc2)CC1 (stereo not drawn) | 189 to 193
4 | CCc1cccc(C(C)C)c1N1C(=O)CN(CC)C1=S | 77 to 79
5 | N#Cc1c(O)cccc1[N+](=O)[O-] | 200
6 | COC(=O)CCC#Cc1cc(Cl)ccc1NS(=O)(=O)c1ccc(C(C)=O)cc1 | 88
7 | O=C(O)c1ccc(N2C3CCC2CN(CC(=O)N2CC=C(c4cccc5ccsc45)CC2)C3)nc1 | 121 to 122
8 | CN(C)N=Cc1cn(C)nc1-c1ccc([N+](=O)[O-])o1 | 164 to 165
9 | C=CCC(=O)Nc1n[nH]c2cc(Cl)ccc12 | 150
10 | CCOC(=O)N[C@@H]1CCc2ccccc2[C@H]1Nc1ccccc1CO (relative stereo) | 134 to 135
11 | N#Cc1c(-c2ccc(Cl)cc2)[nH]c(C(F)(F)F)c1C(F)(F)F | 208
12 | CC(C)c1cccc(C(C)C)c1N1C(=O)c2ccccc2C1=O | 172
13 | C=Cc1ccc2cc(C3CCN(Cc4ccccc4)CC3)ccc2c1 | 112 to 114
14 | CC(=O)Nc1ccc(CCCOCCCCCCNCC(O)c2cc(Cl)c(N)c(Cl)c2)nc1 (stereo not drawn) | 66 to 67
15 | CC(C)(C)OC(=O)CN1C(=O)[C@@H](NC(=O)OCc2ccccc2)[C@H]1CCc1ccco1 | 82 to 84
16 | Cc1ccccc1OCC(O)CNCCCOc1ccccc1 (stereo not drawn) | 73 to 74
17 | CC12CCC(C(=Cc3ccc(C(=O)O)cc3)C1=O)C2(C)C (stereo not drawn) | 240
18 | COc1ncnc(OC)c1N | 94 to 96
19 | N#Cc1cccn(-c2ccc(S(=O)(=O)N(CCO)CCO)cc2)c1=O | 226 to 228
20 | C#CCNC(=O)c1ccc2ccccc2c1 | 163 to 165
21 | O=C1CNN=C(c2ccccn2)N1 | 138 to 139
22 | CC(Cn1cc[nH]c1=NC#N)c1ccc(OC(F)F)c(OC2CCOC2)c1 (stereo not drawn) | 67.8

Row | SMILES | melting point [°C]
23 | CC(=O)OCC(=O)C1(OC(C)=O)CCC2C3CC(C)C4=CC(=O)C=CC4(C)C3C(O)CC21C (stereo not drawn) | 216
24 | COc1ccc2c(c1)C(CCC(C)C)(C(F)(F)F)OCC(=O)N2 (stereo not drawn) | 123 to 130
25 | CNC(=O)ON(C(=O)NC)C(=O)C(C)(C)C | 117 to 119
26 | CN(C)C(=O)N1CCC(Oc2ccc(C(F)(F)F)cc2)(c2ccccc2)CC1 | 158 to 160
27 | CN(CC(=O)C(Cc1cccnc1)NC(=O)c1ccccc1)C(=O)N1CCCC1C(=O)O (stereo not drawn) | 92 to 120
28 | Cc1cc2c(S(C)(=O)=O)nc(CCC(F)(F)F)nc2s1 | 60 to 61
29 | [N-]=[N+]=NCCCC(=O)N1CCc2c(OC(CO)CO)ccc([N+](=O)[O-])c21 | 78 to 79
30 | Cc1ccc(OCCCN2CCN(c3nc(N)nc(-c4cc(Cl)ccc4Cl)n3)CC2)cc1 | 148 to 150
31 | Cc1cccc(C(=O)NCc2cccc3c2CN(C2CCC(=O)NC2=O)C3=O)c1 (stereo not drawn) | 253 to 255
32 | Nc1ncc(-c2ccc(=O)[nH]n2)c(-c2ccccc2)n1 | > 280
33 | O=c1[nH]c(COCc2ccccc2)nc2nccnc12 | 157 to 159
34 | O=C(O)c1cc(F)c(F)c(F)n1 | 81 to 82
35 | COC(=O)CCCCC#Cc1cc(Cl)ccc1N | 66
36 | CCN1CCCC1CNC(=O)c1c(O)c(Cl)cc(Cl)c1OC (single isomer, unassigned; (-)) | 48 to 49
37 | O=C(CCCc1ccccc1)N[C@H](Cc1ccc(F)cc1)[C@@H](O)c1ccc(C(F)(F)F)cc1 (racemic) | 155 to 156
38 | CC(=O)N1CCCN(CC2=Nc3cccc4c(=O)[nH]nc(c34)N2)CC1 | 191 to 193
39 | CN(C(=O)c1ccc([N+](=O)[O-])cc1)C1N(C)C(c2ccc(F)cc2)=NC1(C(F)(F)F)C(F)(F)F (stereo not drawn) | 174 to 175
40 | C[C@@H]1CN(c2ccc([N+](=O)[O-])cc2C#N)C[C@H](C)N1 | 109 to 110
41 | COC(=O)C(=O)NC1CC(C)(C)N(OC2CCCCC2)C(C)(C)C1 | 124 to 126
42 | Cc1nn(-c2ccccc2)c(Nc2ccccc2)c1CC(=O)O | 111 to 113
43 | CCCCCCCCCCCCCCCCCC(=O)OC(CCc1cc(C(C)(C)C)c(O)c(C(C)(C)C)c1)CCc1cc(C(C)(C)C)c(O)c(C(C)(C)C)c1 | 52 to 54

Results, then the compound that gave them:

Row | melting point [°C] | SMILES
44 | 54 to 55 | CCCCCC[C@@H](C)Oc1cc2sc(C(=O)OC)c(O)c2cc1[N+](=O)[O-]
45 | 106 to 107 | Cc1c(N)c2c(c3c1C(c1ccc(C(C)C)cc1)CO3)CCCC2 (stereo not drawn)
46 | 224 to 226 | COc1ccc(-c2cncc(C#N)c2N(C)c2ccc3[nH]ccc3c2)cc1OC
47 | 155 to 157 | Cc1[nH]c(C(=O)N2CCCC2)c(C)c1-c1nc2ccc(C(=O)c3ccccc3)cc2[nH]1
48 | 149 to 151 | CNc1nc(-c2cccc(NC(=O)c3ccc(N(C)C)nc3)c2)c2cc(OC)c(OC)cc2n1
49 | 119 to 121 | COc1ccc(OC)c(C(=O)c2cc3cc(OC)ccc3o2)c1
50 | 185 | COc1ccc(C(=O)Nc2ccc(OCc3ccccc3)cc2N)cc1C12CC3CC(CC(C3)C1)C2
51 | 83 to 84 | CCOC(=O)C(c1ccc(CN2CCOCC2)cn1)c1cc(C#N)ccc1[N+](=O)[O-] (stereo not drawn)
52 | 87 to 92 | O=C(Cc1c(F)c(F)nc(F)c1Cl)OCc1ccccc1
53 | 80 to 82 | COC(=O)C(Cc1ccc(OS(=O)(=O)C(F)(F)F)c(OS(=O)(=O)C(F)(F)F)c1)NC(=O)OC(C)(C)C (stereo not drawn)
54 | 142 to 143 | Cc1cc(-c2cc(COS(C)(=O)=O)c(=O)n(Cc3ccccc3Cl)n2)ccc1F
55 | 254 | CCNC(=O)C1CCN(Cc2cnc3cc(NC(=O)c4ccc(-c5ccc(F)cc5)cc4)c(C)cc3c2)CC1
56 | 197 to 199 | Cc1sc(N2C(=O)c3ccccc3C2=O)c(C(=O)c2ccc(Cl)cc2)c1CN(C)Cc1ccccc1
57 | 141 to 142 | Cc1oc(-c2ccccc2)nc1COc1cncc(COc2ccc(CC(=O)O)cc2)c1
58 | 275 to 279 | Cc1ccc(C(=O)Nc2cc(-c3cccnc3)cc(C(F)(F)F)c2)cc1Nc1nccc(-c2cccnc2)n1
59 | 180 to 182 | CC(=O)n1cc(O)c2cc(Br)ccc21
60 | 260 to 261 | COCCCn1c(C(N)=O)cc2c3c(c(-c4ccccc4Cl)cc21)C(=O)NC3=O
61 | 265 to 266 | CCOC(=O)c1c(S)nc2cc(OC)c(OC)cc2c1-c1ccc(OC)c(OC)c1
62 | 117 to 120 | CCCc1ccc2oc(Cc3ccc(O)cc3)c(C)c2c1O
63 | 191 to 192 | NC(=O)c1[nH]c2ccccc2c1Cl
64 | 148 to 150 | CON=C(Nc1nc(OC)nc(OC)n1)NS(=O)(=O)c1ccccc1S(=O)(=O)OC
65 | 143 | CCOC(=O)Nc1ccc(C(c2ccccc2)n2ccnc2)cc1CO (stereo not drawn)
66 | 119 to 120 | CCc1nc(-c2ccco2)c2ncn(Cc3ccc(OC)cc3)c2n1
67 | 105 to 108 | CCCCc1nc2c(N)nc3cccnc3c2n1CCCCNC(=O)c1ccc(C(OCCN(C)C)c2ccccc2)cc1 (stereo not drawn)
68 | 155 to 160 | CCCCCCC(C(=O)N1CC(O)CC1C(=O)O)n1cnc2cc(-c3ccccc3-c3nn[nH]n3)ccc21 (stereo not drawn)
